Values quoted from earlier work as cited in US8642603B2, “Substituted dihydro and tetrahydro oxazolopyrimidinones, preparation and use thereof” (Sanofi, priority 2007, dated 2014).

Key:
[1] = system: positive and negative symptoms of schizophrenia; settings: compared to placebo
healthy human subjects = settings: pretreatment
[2] = system: pentylenetetrazole- and picrotoxin-induced seizures; settings: in vivo

## Cc1c(OCc2cccc(-c3ccc(C(=O)O)cc3)c2)cc2c(c1C)C(=O)C(C1CCCC1)C2 (stereo not shown) [biphenyl-indanone A]
mice
  antipsychotic- and anxiolytic-like effects: antipsychotic- and anxiolytic-like effects

## N[C@]1(C(=O)O)[C@H]2[C@@H](C[C@H]1OCc1ccc(Cl)c(Cl)c1)[C@]2(F)C(=O)O [MGS0039]
Some animal models
  antidepressant-like effects: dose-dependent antidepressant-like effects

## N[C@H](C(=O)O)c1ccc(C(=O)O)c(O)c1 [(S)-4-carboxy-3-hydroxyphenylglycine]
DBA/2 mice
  protection against audiogenic seizures: protects against audiogenic seizures

## N[C@@]1(C(=O)O)CO[C@H]2[C@H](C(=O)O)[C@H]21 [LY379268]
rat
  effect on REM sleep and fast EEG: suppresses rapid eye movement (REM) sleep and fast EEG

## CSCC[C@H](N)C(=O)N[C@@]1(C(=O)O)CS(=O)(=O)[C@H]2[C@H](C(=O)O)[C@H]21 [LY2140023]
[1]
  positive and negative symptoms of schizophrenia: statistically significant improvements

## N[C@@]1(C(=O)O)CC[C@H]2[C@H](C(=O)O)[C@H]21 [LY354740]
Healthy human subjects
  effect on disruption of working memory by ketamine: attenuation of the disruptive effects
[2]
  effect on pentylenetetrazole- and picrotoxin-induced seizures: attenuates pentylenetetrazole- and picrotoxin-induced seizures
